{"source": "patent US20220268691A1", "about": "“MICROSCOPE ADAPTOR AND SAMPLE MOUNT FOR MAGNETICALLY ACTUATING SAMPLE” (University of Southern California, priority 2021, published 2022)", "key": {"Pancreatic spheroids": {"test_system": "Pancreatic spheroids", "experiment": "Magnetogel toxicity study (viability of pancreatic spheroids in M-gel)", "type": "cell-based", "conditions": "M-gel/cells treated with 10 μL of gemcitabine; 96-well culture plate; sextuplet", "experimental": "Pancreatic spheroids were grown on a 96-well culture plate. All measurements were performed in sextuplet (6×). The viability from these wells was compared against two controls: Matrigel/cells only, and M-gel/cells treated with 10 μL of gemcitabine (GEM), a common chemotherapeutic agent (as shown in FIG. 2B)."}, "PDAC": {"test_system": "PDAC", "conditions": "GEM-based treatments; pancreatic cancer patients; cited from earlier work"}}}
{"smiles": "Nc1ccn([C@@H]2O[C@H](CO)[C@@H](O)C2(F)F)c(=O)n1", "note": "[GEM, gemcitabine]", "values": [{"measurement": "viability of cells (GEM control)", "setting": "Pancreatic spheroids", "value": "cells killed"}, {"measurement": "response to treatment observed in patients", "setting": "PDAC", "value": "37 % of patients"}]}
